According to US7459585B2, “Benzene derivatives and pharmaceutical use thereof” (Ajinomoto Co., Inc., priority 1998, dated 2008):
In brackets after ≈: the same amount, converted by molar mass.

Test system: NF-kappa B
Assay: Evaluation of NF-kappa B inhibition (β-gal reporter, IL-1β-induced)
Assay type: cell-based
Conditions: Homo sapiens; β-gal reporter with NF-kappa B binding motif in SV40 large T-immortalized HUVEC; induced with 1 ng/ml IL-1β; read-out: NF-kB inhibiting activity IC50
Procedure: Cells used for the tests were those prepared by stably introducing E. coli β-galactosidase (β-gal) genes driven by SV 40 minimum promoter fused with 4 tandems of the AP-1 binding motif derived from human MMP-1 gene enhancer into human normal umbilical cord vein endothelial cells (HUVEC) immortalized with SV 40 large T antigen. The cells were subcultured in RPMI medium containing 10% of FBS, and were seeded on a 96-well plate in a concentration of 1×10^4/well on a day before the start of the experiments. A compound of the present invention was dissolved in DMSO to obtain a solution of a proper concentration, which was added into the 96-well plate so that the final DMSO concentration would be not higher than 1%. 30 minutes after the addition of the compound, phorbol-12-myristate-13-acetate (PMA) was added to each well so as to obtain the final concentration of 50 ng/ml. β-gal activity was determined 16 hours after with a chemiluminescent substrate (Galacton-Light-Plus: Boehringer Mannheim) according to a protocol attached to the reagent. A Luminescence detector (ATTO) was used for the determination.
The tests were carried out in the same manner as that of Example 56. Concretely, the AP-1 binding motif of the reporter genes in Example 56 was replaced with the NF-kappa B binding motif derived from immunoglobulin kappa light chain enhancer, and NF-kappa B transcriptional activity was induced with 1 ng/ml of IL-1β in place of PMA.

Compound | IC50 [µg/mL]
CN(C)c1ccc(CC(=O)Nc2ccc(Cc3ccc(NC(=O)C4CC4(C)C)cc3)cc2)cc1 (centres unmarked) [Compound 25] | 0.03 (≈ 0.0658 µM)
CC1(C)CC1C(=O)Nc1ccc(C(=NO)c2ccc(NC(=O)C3CC3(C)C)cc2)cc1 (centres unmarked) [Compound 8] | 5 (≈ 11.9 µM)
CC1(C)CC1C(=O)Nc1ccc(C(CC(=O)O)c2ccc(NC(=O)C3CC3(C)C)cc2)cc1 (centres unmarked) [Compound 20] | 3 (≈ 6.69 µM)
CC1(C)CC1C(=O)Nc1ccc(Cc2ccc(NC(=O)C3CC3(Cl)Cl)cc2)cc1 (centres unmarked) [Compound 23] | 0.1 (≈ 0.232 µM)
CC(=O)NC(c1ccc(NC(=O)C2CC2(C)C)cc1)c1ccc(NC(=O)C2CC2(C)C)cc1 (centres unmarked) [Compound 10] | > 5
CC1(C)CC1C(=O)Nc1ccc(Cc2ccc(NC(=O)C3CCCN3)cc2)cc1 (centres unmarked) [Compound 43] | 0.1 (≈ 0.255 µM)
CC1(C)CC1C(=O)Nc1ccc(Nc2ccc(NC(=O)C3CC3(C)C)cc2)cc1 (centres unmarked) [Compound 3] | 1 (≈ 2.55 µM)
CC1(C)C[C@H]1C(=O)Nc1ccc(C(O)c2ccc(NC(=O)[C@@H]3CC3(C)C)cc2)cc1 [Compound 35] | > 5
COc1ccc(CCNc2ccc(Cc3ccc(NC(=O)C4CC4(C)C)cc3)cc2)cc1 (centres unmarked) [Compound 27] | 0.1 (≈ 0.233 µM)
COc1ccc(CCCNc2ccc(Cc3ccc(NC(=O)C4CC4(C)C)cc3)cc2)cc1 (centres unmarked) [Compound 28] | 0.1 (≈ 0.226 µM)
CC1(C)CC1C(=O)Nc1ccc(S(=O)(=O)c2ccc(NC(=O)C3CC3(C)C)cc2)cc1 (centres unmarked) [Compound 5] | > 5
CC1(C)CC1C(=O)Nc1ccc(C(O)c2ccc(NC(=O)C3CC3(C)C)cc2)cc1 (centres unmarked) [Compound 11] | 0.12 (≈ 0.295 µM)
COc1ccc(CC(=O)Nc2ccc(Cc3ccc(NC(=O)C4CC4(C)C)cc3)cc2)cc1 (centres unmarked) [Compound 24] | 0.1 (≈ 0.226 µM)
CC1(C)CC1C(=O)Nc1ccc(COc2ccc(NC(=O)C3CC3(C)C)cc2)cc1 (centres unmarked) [Compound 51] | 1 (≈ 2.46 µM)
CC1(C)CC1C(=O)Nc1ccc(CSc2ccc(NC(=O)C3CC3(C)C)cc2)cc1 (centres unmarked) [Compound 52] | 0.2 (≈ 0.473 µM)
CC1(C)CC1C(=O)Nc1ccc(C(CN)c2ccc(NC(=O)C3CC3(C)C)cc2)cc1 (centres unmarked) [Compound 18] | 3 (≈ 7.15 µM)

Compound | IC50 [µg/mL]
CC1(C)CC1C(=O)Nc1ccc(Oc2ccc(NC(=O)C3CC3(C)C)cc2)cc1 (centres unmarked) [Compound 4] | 1.1 (≈ 2.8 µM)
CC1(C)CC1C(=O)Nc1ccc(C(N)c2ccc(NC(=O)C3CC3(C)C)cc2)cc1 (centres unmarked) [Compound 9] | 2.5 (≈ 6.16 µM)
CC1(C)CC1C(=O)Nc1ccc(C(=O)c2ccc(NC(=O)C3CC3(C)C)cc2)cc1 (centres unmarked) [Compound 1] | > 5
CC1(C)CC1C(=O)Nc1ccc(C(O)c2ccc(NC(=O)Cc3ccc(Cl)cc3)cc2)cc1 (centres unmarked) [Compound 44] | 1.5 (≈ 3.24 µM)
CC1(C)C[C@@H]1C(=O)Nc1ccc(C(O)c2ccc(NC(=O)[C@@H]3CC3(C)C)cc2)cc1 (some centres unmarked) [Compound 34] | 0.06 (≈ 0.148 µM)
COc1ccc(CC(=O)Nc2ccc(C(O)c3ccc(NC(=O)C4CC4(C)C)cc3)cc2)cc1 (centres unmarked) [Compound 45] | 0.9 (≈ 1.96 µM)
COc1ccc(CCCC(=O)Nc2ccc(Cc3ccc(NC(=O)C4CC4(C)C)cc3)cc2)cc1 (centres unmarked) [Compound 55] | 0.1 (≈ 0.212 µM)
COc1ccc(CCC(=O)Nc2ccc(Cc3ccc(NC(=O)C4CC4(C)C)cc3)cc2)cc1 (centres unmarked) [Compound 26] | 0.1 (≈ 0.219 µM)
CC1(C)CC1C(=O)Nc1ccc(CCc2ccc(NC(=O)C3CC3(C)C)cc2)cc1 (centres unmarked) [Compound 6] | 0.37 (≈ 0.915 µM)
CC1(C)CC1C(=O)Nc1ccc(Cc2ccc(N3C(=O)C4C5C=CC(C5)C4C3=O)cc2)cc1 (centres unmarked) [Compound 40] | 1 (≈ 2.27 µM)
COC(c1ccc(NC(=O)C2CC2(C)C)cc1)c1ccc(NC(=O)C2CC2(C)C)cc1 (centres unmarked) [Compound 12] | > 5
CC1(C)CC1C(=O)Nc1ccc(Cc2cccc(NC(=O)C3CC3(C)C)c2)cc1 (centres unmarked) [Compound 7] | 0.37 (≈ 0.947 µM)
CC1(C)CC1C(=O)Nc1ccc(C(CC#N)c2ccc(NC(=O)C3CC3(C)C)cc2)cc1 (centres unmarked) [Compound 19] | 1.2 (≈ 2.79 µM)
CC1(C)CC1C(=O)Nc1ccc(Sc2ccc(NC(=O)C3CC3(C)C)cc2)cc1 (centres unmarked) [Compound 2] | 0.1 (≈ 0.245 µM)
Cc1cc(Cc2ccc(NC(=O)C3CC3(C)C)c(C)c2)ccc1NC(=O)C1CC1(C)C (centres unmarked) [Compound 38] | 0.5 (≈ 1.19 µM)
CC1(C)CC1C(=O)Nc1ccc(C(CN=[N+]=[N-])c2ccc(NC(=O)C3CC3(C)C)cc2)cc1 (centres unmarked) [Compound 17] | 2.5 (≈ 5.61 µM)
